From ChEMBL document CHEMBL4507272 (2021)

Experiments:
[1] = test system: Epidermal growth factor receptor (Homo sapiens), P00533 [UNDEFINED MUTATION]; conditions: Compound concentration 1000.0 nM
[2] = target: Transient receptor potential cation channel subfamily M member 6 (Homo sapiens) (UniProt Q9BX84); conditions: Compound concentration 1000.0 nM
[3] = target: Serine/threonine-protein kinase Nek1 (Homo sapiens) (UniProt Q96PY6); conditions: Compound concentration 1000.0 nM
[4] = target: Serine/threonine-protein kinase DCLK2 (Homo sapiens) (UniProt Q8N568); conditions: Compound concentration 1000.0 nM
[5] = target: Calcium-dependent protein kinase 1 (Plasmodium falciparum) (UniProt P62344); conditions: Compound concentration 1000.0 nM
[6] = target: D(4) dopamine receptor (Homo sapiens) (UniProt P21917); conditions: Compound concentration 10.0 uM
[7] = test system: Leucine-rich repeat serine/threonine-protein kinase 2 (Homo sapiens), Q5S007 [G2019S]; conditions: Compound concentration 1000.0 nM
[8] = target: BDNF/NT-3 growth factors receptor (Homo sapiens) (UniProt Q16620); conditions: Compound concentration 1000.0 nM
[9] = target: Mitogen-activated protein kinase kinase kinase 9 (Homo sapiens) (UniProt P80192); conditions: Compound concentration 1000.0 nM
[10] = target: Serine/threonine-protein kinase WNK3 (Homo sapiens) (UniProt Q9BYP7); conditions: Compound concentration 1000.0 nM
[11] = target: Macrophage colony-stimulating factor 1 receptor (Homo sapiens) (UniProt P07333); conditions: Compound concentration 1000.0 nM
Chain of Macrophage colony-stimulating factor 1 receptor (Homo sapiens) (P07333 whole entry): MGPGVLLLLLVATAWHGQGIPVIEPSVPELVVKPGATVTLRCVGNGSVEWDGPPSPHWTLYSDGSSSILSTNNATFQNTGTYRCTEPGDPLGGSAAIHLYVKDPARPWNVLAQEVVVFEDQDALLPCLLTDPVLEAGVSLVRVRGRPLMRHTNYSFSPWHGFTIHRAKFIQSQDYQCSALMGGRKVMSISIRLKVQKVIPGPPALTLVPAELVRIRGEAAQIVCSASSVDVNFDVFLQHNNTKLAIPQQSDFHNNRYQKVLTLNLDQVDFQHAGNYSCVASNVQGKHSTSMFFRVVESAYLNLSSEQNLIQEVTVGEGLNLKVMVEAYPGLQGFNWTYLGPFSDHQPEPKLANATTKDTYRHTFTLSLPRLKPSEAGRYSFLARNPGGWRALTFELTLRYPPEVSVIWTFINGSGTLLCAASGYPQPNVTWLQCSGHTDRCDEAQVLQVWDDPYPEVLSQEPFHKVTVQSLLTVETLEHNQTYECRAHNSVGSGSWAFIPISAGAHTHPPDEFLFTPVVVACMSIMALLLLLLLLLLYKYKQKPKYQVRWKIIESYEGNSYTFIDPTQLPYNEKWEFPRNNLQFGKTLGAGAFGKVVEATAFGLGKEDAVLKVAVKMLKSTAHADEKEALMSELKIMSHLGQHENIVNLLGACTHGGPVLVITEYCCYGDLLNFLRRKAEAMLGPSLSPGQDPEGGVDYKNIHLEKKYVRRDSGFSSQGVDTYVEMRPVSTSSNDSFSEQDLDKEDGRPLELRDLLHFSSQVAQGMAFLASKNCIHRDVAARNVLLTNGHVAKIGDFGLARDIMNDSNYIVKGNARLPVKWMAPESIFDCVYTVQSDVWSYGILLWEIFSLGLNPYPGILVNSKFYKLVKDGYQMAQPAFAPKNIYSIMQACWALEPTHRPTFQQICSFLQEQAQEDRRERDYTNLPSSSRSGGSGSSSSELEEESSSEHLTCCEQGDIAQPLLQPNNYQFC

[12] = target: Tyrosine-protein kinase Srms (Homo sapiens) (UniProt Q9H3Y6); conditions: Compound concentration 1000.0 nM
Chain of Tyrosine-protein kinase Srms (Homo sapiens) (Q9H3Y6 whole entry): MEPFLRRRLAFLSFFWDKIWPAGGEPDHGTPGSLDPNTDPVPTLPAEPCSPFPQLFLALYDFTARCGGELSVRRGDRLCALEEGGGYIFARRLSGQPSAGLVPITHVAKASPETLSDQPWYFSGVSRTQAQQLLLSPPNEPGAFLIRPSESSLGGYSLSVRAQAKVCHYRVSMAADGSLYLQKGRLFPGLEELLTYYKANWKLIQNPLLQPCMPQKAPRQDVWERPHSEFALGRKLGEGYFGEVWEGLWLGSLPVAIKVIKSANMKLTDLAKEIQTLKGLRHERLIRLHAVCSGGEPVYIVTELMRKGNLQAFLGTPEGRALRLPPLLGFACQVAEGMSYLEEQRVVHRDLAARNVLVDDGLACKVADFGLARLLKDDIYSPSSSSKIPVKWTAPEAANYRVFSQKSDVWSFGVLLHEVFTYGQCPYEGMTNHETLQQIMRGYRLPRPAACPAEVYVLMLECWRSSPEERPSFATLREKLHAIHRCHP

[13] = target: Cyclin-dependent kinase 11B (Homo sapiens) (UniProt P21127); conditions: Compound concentration 1000.0 nM
[14] = target: Sigma intracellular receptor 2 (Homo sapiens) (UniProt Q5BJF2); conditions: Compound concentration 10.0 uM
[15] = target: Serine/threonine-protein kinase 38-like (Homo sapiens) (UniProt Q9Y2H1); conditions: Compound concentration 1000.0 nM
Chain of Serine/threonine-protein kinase 38-like (Homo sapiens) (Q9Y2H1 2-464 limits assumed): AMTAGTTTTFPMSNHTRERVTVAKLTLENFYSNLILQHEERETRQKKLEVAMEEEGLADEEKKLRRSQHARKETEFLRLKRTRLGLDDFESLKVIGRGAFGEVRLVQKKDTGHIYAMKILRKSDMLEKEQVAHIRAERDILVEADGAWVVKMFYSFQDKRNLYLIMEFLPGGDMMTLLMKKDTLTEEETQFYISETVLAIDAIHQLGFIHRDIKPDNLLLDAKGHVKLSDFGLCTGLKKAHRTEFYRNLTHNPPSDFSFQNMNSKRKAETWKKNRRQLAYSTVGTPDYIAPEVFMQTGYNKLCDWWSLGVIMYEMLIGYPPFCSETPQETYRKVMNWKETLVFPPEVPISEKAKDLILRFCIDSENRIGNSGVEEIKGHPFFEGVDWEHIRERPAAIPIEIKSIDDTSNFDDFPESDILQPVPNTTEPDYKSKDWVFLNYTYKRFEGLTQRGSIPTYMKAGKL

[16] = target: Cyclin-dependent kinase-like 2 (Homo sapiens) (UniProt Q92772); conditions: Compound concentration 1000.0 nM
[17] = target: Testis-specific serine/threonine-protein kinase 3 (Homo sapiens) (UniProt Q96PN8); conditions: Compound concentration 1000.0 nM
Chain of Testis-specific serine/threonine-protein kinase 3 (Homo sapiens) (Q96PN8 whole entry): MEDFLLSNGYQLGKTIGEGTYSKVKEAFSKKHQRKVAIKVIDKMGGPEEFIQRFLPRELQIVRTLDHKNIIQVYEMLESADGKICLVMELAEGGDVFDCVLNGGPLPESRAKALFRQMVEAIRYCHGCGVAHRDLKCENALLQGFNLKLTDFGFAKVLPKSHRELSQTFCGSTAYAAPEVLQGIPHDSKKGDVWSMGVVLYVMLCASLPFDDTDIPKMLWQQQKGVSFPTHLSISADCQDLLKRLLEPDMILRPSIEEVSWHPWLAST

[18] = target: Serine/threonine-protein kinase 16 (Homo sapiens) (UniProt O75716); conditions: Compound concentration 1000.0 nM
[19] = target: Macrophage-stimulating protein receptor (Homo sapiens) (UniProt Q04912); conditions: Compound concentration 1000.0 nM
[20] = target: Fibroblast growth factor receptor 1 (Homo sapiens) (UniProt P11362); conditions: Compound concentration 1000.0 nM
[21] = target: Serine/threonine-protein kinase SBK1 (Homo sapiens) (UniProt Q52WX2); conditions: Compound concentration 1000.0 nM
[22] = test system: Proto-oncogene tyrosine-protein kinase receptor Ret (Homo sapiens), P07949 [V804M]; conditions: Compound concentration 1000.0 nM
Chain of Proto-oncogene tyrosine-protein kinase receptor Ret (Homo sapiens), P07949 [V804M] (P07949 whole entry V804M): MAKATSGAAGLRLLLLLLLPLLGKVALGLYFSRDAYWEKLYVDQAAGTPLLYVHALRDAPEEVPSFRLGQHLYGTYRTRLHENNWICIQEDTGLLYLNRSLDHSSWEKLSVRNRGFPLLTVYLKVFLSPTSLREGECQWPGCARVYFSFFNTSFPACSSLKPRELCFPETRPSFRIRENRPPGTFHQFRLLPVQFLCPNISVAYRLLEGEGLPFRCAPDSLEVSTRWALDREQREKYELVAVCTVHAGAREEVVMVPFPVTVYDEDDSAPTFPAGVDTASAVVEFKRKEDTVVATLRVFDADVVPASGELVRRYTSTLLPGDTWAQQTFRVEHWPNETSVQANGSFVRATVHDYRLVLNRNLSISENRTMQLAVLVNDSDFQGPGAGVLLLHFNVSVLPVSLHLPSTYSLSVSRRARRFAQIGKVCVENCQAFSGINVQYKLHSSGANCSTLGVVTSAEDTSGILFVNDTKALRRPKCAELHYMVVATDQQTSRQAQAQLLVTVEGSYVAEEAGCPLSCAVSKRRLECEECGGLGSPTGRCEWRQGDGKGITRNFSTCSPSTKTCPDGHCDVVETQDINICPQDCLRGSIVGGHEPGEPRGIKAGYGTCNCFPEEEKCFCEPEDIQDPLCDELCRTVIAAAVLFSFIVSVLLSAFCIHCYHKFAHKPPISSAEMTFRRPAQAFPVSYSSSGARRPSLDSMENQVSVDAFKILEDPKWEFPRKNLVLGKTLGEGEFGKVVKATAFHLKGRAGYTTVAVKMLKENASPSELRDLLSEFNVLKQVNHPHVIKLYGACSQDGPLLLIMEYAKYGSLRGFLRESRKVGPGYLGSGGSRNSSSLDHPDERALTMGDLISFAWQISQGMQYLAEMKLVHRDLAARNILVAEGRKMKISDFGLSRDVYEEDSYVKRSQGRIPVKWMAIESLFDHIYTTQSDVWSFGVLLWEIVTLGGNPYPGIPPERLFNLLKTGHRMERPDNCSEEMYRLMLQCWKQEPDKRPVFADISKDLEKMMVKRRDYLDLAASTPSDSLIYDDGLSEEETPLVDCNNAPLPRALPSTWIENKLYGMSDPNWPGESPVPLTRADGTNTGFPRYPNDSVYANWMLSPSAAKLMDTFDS

[23] = target: Serine/threonine-protein kinase ULK1 (Homo sapiens) (UniProt O75385); conditions: Compound concentration 1000.0 nM
[24] = target: Tyrosine-protein kinase ABL1 (Homo sapiens) (UniProt P00519); conditions: Compound concentration 1000.0 nM
[25] = target: Interleukin-1 receptor-associated kinase 3 (Homo sapiens) (UniProt Q9Y616); conditions: Compound concentration 1000.0 nM
[26] = target: Microtubule-associated serine/threonine-protein kinase 1 (Homo sapiens) (UniProt Q9Y2H9); conditions: Compound concentration 1000.0 nM
[27] = target: Macrophage colony-stimulating factor 1 receptor (Homo sapiens) (UniProt P07333); conditions: Compound concentration 1000.0 nM; remark: listed apart in the source
[28] = target: Receptor-interacting serine/threonine-protein kinase 1 (Homo sapiens) (UniProt Q13546); conditions: Compound concentration 1000.0 nM
[29] = target: Tyrosine-protein kinase Fer (Homo sapiens) (UniProt P16591); conditions: Compound concentration 1000.0 nM
[30] = target: Serine/threonine-protein kinase Nek9 (Homo sapiens) (UniProt Q8TD19); conditions: Compound concentration 1000.0 nM
[31] = target: TGF-beta receptor type-1 (Homo sapiens) (UniProt P36897); conditions: Compound concentration 1000.0 nM
[32] = target: Phosphatidylinositol 4-phosphate 5-kinase type-1 gamma (Homo sapiens) (UniProt O60331); conditions: Compound concentration 1000.0 nM
[33] = target: Serine/threonine-protein kinase D3 (Homo sapiens) (UniProt O94806); conditions: Compound concentration 1000.0 nM
[34] = target: Mast/stem cell growth factor receptor Kit (Homo sapiens) (UniProt P10721); conditions: Compound concentration 1000.0 nM
[35] = target: Serine/threonine-protein kinase SIK1 (Homo sapiens) (UniProt P57059); conditions: Compound concentration 1000.0 nM
Chain of Serine/threonine-protein kinase SIK1 (Homo sapiens) (P57059 whole entry): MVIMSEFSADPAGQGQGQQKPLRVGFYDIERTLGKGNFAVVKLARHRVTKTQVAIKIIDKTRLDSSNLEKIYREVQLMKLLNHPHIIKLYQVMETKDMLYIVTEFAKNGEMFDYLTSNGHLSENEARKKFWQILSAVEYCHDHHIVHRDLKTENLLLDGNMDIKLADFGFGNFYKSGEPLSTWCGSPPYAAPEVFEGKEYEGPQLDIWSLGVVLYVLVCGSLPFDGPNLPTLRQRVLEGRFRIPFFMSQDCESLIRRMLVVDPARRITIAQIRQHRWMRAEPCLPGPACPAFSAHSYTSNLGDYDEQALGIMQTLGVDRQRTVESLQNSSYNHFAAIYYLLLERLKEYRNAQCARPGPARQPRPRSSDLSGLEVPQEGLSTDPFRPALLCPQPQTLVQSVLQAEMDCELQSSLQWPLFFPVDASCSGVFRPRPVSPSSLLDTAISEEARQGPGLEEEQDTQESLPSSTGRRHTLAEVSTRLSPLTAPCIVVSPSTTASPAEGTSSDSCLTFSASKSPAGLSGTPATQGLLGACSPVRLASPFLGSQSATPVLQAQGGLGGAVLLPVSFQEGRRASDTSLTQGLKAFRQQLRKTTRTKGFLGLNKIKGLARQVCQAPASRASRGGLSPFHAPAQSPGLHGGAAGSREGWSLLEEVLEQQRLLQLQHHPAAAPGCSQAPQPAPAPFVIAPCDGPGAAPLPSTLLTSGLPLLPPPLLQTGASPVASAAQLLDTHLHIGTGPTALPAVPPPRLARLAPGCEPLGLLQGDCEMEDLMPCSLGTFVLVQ

[36] = target: Tyrosine-protein kinase JAK1 (Homo sapiens) (UniProt P23458); conditions: Compound concentration 1000.0 nM
[37] = target: Glycogen synthase kinase-3 beta (Homo sapiens) (UniProt P49841); conditions: Compound concentration 1000.0 nM
[38] = target: Mitogen-activated protein kinase kinase kinase kinase 3 (Homo sapiens) (UniProt Q8IVH8); conditions: Compound concentration 1000.0 nM
[39] = target: Serine/threonine-protein kinase RIO3 (Homo sapiens) (UniProt O14730); conditions: Compound concentration 1000.0 nM
[40] = target: Cyclin-dependent kinase 15 (Homo sapiens) (UniProt Q96Q40); conditions: Compound concentration 1000.0 nM
[41] = target: Serine/threonine-protein kinase tousled-like 2 (Homo sapiens) (UniProt Q86UE8); conditions: Compound concentration 1000.0 nM
[42] = target: Ephrin type-A receptor 2 (Homo sapiens) (UniProt P29317); conditions: Compound concentration 1000.0 nM
Chain of Ephrin type-A receptor 2 (Homo sapiens) (P29317 whole entry): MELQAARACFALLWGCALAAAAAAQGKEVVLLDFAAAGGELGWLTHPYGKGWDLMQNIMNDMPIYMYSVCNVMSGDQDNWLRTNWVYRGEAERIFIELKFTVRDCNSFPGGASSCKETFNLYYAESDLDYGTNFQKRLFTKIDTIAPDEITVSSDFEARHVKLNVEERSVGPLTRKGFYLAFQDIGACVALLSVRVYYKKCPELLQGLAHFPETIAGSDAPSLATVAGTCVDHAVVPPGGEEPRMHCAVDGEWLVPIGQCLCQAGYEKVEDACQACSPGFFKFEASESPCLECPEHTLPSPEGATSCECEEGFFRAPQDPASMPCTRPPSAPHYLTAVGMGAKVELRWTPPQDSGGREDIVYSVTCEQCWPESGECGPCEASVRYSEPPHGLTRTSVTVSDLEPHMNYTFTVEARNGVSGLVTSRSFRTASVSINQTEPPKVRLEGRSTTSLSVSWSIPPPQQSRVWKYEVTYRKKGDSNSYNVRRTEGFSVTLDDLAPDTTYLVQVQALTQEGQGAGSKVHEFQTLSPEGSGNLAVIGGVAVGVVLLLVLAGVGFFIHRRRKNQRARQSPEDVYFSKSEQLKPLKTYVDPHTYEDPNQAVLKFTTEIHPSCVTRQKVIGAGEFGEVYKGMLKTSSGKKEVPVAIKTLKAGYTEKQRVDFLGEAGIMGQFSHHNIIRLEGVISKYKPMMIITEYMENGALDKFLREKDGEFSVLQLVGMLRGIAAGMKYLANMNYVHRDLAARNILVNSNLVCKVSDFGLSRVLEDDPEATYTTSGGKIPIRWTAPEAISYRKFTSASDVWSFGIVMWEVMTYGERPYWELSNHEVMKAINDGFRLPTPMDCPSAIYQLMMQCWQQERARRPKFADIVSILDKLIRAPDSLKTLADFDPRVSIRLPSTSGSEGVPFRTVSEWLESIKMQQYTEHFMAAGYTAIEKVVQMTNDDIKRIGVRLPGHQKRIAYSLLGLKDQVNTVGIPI

[43] = target: Mitogen-activated protein kinase 8 (Homo sapiens) (UniProt P45983); conditions: Compound concentration 1000.0 nM
[44] = target: Beta-1 adrenergic receptor (Homo sapiens, UniProt P08588); conditions: Compound concentration 10.0 uM
[45] = target: cAMP-dependent protein kinase catalytic subunit alpha (Homo sapiens) (UniProt P17612); conditions: Compound concentration 1000.0 nM

Compound: CC(=O)C1=C(C)N(c2cccc(C(F)(F)F)c2)C(=O)N[C@@H]1c1ccc(C#N)nc1 [BAY-678]
- residual activity [1]: 80%
- residual activity [2]: 83.8%
- residual activity [3]: 100%
- residual activity [4]: 88%
- residual activity [5]: 94.8%
- inhibition [6]: 15.9%
- residual activity [7]: 100%
- residual activity [8]: 98.1%
- residual activity [9]: 94%
- residual activity [10]: 100%
- residual activity [11]: 100%
- residual activity [12]: 97.9%
- residual activity [13]: 100%
- inhibition [14]: 35.9%
- residual activity [15]: 93.6%
- residual activity [16]: 75.4%
- residual activity [17]: 96.2%
- residual activity [18]: 84.6%
- residual activity [19]: 81.1%
- residual activity [20]: 100%
- residual activity [21]: 100%
- residual activity [22]: 100%
- residual activity [23]: 100%
- residual activity [24]: 96.5%
- residual activity [25]: 100%
- residual activity [26]: 96.9%
- residual activity [27]: 99.4%
- residual activity [28]: 85.8%
- residual activity [29]: 96.9%
- residual activity [30]: 100%
- residual activity [31]: 99.2%
- residual activity [32]: 100%
- residual activity [33]: 78%
- residual activity [34]: 96.9%
- residual activity [35]: 100%
- residual activity [36]: 85.9%
- residual activity [37]: 100%
- residual activity [38]: 83.5%
- residual activity [39]: 100%
- residual activity [40]: 100%
- residual activity [41]: 100%
- residual activity [42]: 100%
- residual activity [43]: 100%
- inhibition [44]: 60%
- residual activity [45]: 92.3%
